These results are taken from patent publication US11413250B2, “Shape changing drug delivery devices and methods” (Incept, LLC, priority 2015, dated 2022).

The conditions of this data set: in vivo test of Example 17. Here is the method: The tolerability, pharmacokinetics, and pharmacodynamics of the formulations from examples 1 and 2 were evaluated in Dutch belted rabbits through 6 months. 112 eyes of naïve Dutch belted rabbits ([…]) were bilaterally dosed with either a necked fiber or a coiled fiber and were sacrificed at 1, 3 and 6 months to test for biocompatibility or pharmacokinetics.

With `CNC(=O)c1ccccc1Sc1ccc2c(/C=C/c3ccccn3)n[nH]c2c1` [Axitinib], the “Toxicity of the delivered amounts” value is reported as “not toxic”.
